Results on 14 compounds are retold here after US9527867B2, “Antibacterial biaromatic derivatives” (Actelion Pharmaceuticals Ltd., priority 2013, dated 2016).

Common to all, as to assay: Bacterial growth minimal inhibitory concentration (broth microdilution, CLSI M7-A7)
Common to all, as to assay type: cell-based

Test [1] concerns Staphylococcus aureus A798. The settings on record: multiply-resistant strain (in particular quinolone-resistant); for MIC: Staphylococcus aureus, A798, cation-adjusted Mueller-Hinton Broth, read-out: MIC for S. aureus A798. The method in brief:
(§1)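 Read-out is the minimal inhibitory concentration in mg/L, obtained by microdilution in cation-adjusted Mueller-Hinton broth following CLSI M7-A7. Quinolone resistance is present in A798 and T6474, which are multiply resistant, but absent in A894 and in methicillin-sensitive ATCC29213.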

Test [2] has as its system Enterococcus faecium A949. The settings on record: multiply-resistant strain (in particular quinolone-resistant); for MIC: Enterococcus faecium, A949, cation-adjusted Mueller-Hinton Broth, read-out: MIC for E. faecium A949. A digest of the protocol:
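Broth microdilution after CLSI M7-A7 in cation-adjusted Mueller-Hinton medium gave MIC values in mg/L.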

Test [3] deals with Staphylococcus aureus ATCC29213. The settings on record: methicillin-sensitive and quinolone-sensitive strain; for MIC: Staphylococcus aureus, ATCC29213, cation-adjusted Mueller-Hinton Broth, read-out: MIC for S. aureus ATCC29213. The method in brief: as §1
Test [4] has as its system Moraxella catarrhalis A894. The settings on record: quinolone-sensitive strain; for MIC: Moraxella catarrhalis, A894, cation-adjusted Mueller-Hinton Broth. The method in brief: as §1
The subject of test [5] is Acinetobacter baumannii T6474. The settings on record: multiply-resistant strain (in particular quinolone-resistant); for MIC: Acinetobacter baumannii, T6474, cation-adjusted Mueller-Hinton Broth. A digest of the protocol: as §1
Where [6] appears, read: cation-adjusted Mueller-Hinton Broth.

Converted amounts (≈) assume the structure as drawn.

As to `COc1cccc(-c2cccc(CNCC[C@H]3CN(c4ccc5c(n4)NC(=O)CO5)C(=O)O3)c2)c1C#N` [Example 86, 3-methoxy-3′-({2-[(S)-2-oxo-3-(3-oxo-3,4-dihydro-2H-pyrido[3,2-b][1,4]oxazin-6-yl)-oxazolidin-5-yl]-ethylamino}-methyl)-biphenyl-2-carbonitrile], the MIC (usually the lowest concentration found to suppress growth) in test [1] was 0.5 µg/mL (≈ 1 µM); in test [2], 4 µg/mL (≈ 8.01 µM); in test [3], 0.125 µg/mL (≈ 0.25 µM); in test [4], ≤ 0.016 µg/mL; in test [5], 8 µg/mL (≈ 16 µM).

As to `COc1cccc(-c2cc(CNCC[C@H]3CN(c4ccc5c(n4)NC(=O)CO5)C(=O)O3)ccn2)n1` [Example 87, 6-((S)-5-{2-[(6′-methoxy-[2,2]bipyridinyl-4-ylmethyl)-amino]-ethyl}-2-oxo-oxazolidin-3-yl)-4H-pyrido[3,2-b][1,4]oxazin-3-one], the MIC in test [1] was 0.063 µg/mL (≈ 0.132 µM); in test [2] it was 2 µg/mL (≈ 4.2 µM); in test [3] it was 0.125 µg/mL (≈ 0.262 µM); in test [4] it was ≤ 0.016 µg/mL; in test [5], 0.25 µg/mL (≈ 0.525 µM).

As to `N#Cc1cccc(-c2cccc(CNCC[C@H]3CN(c4ccc5c(c4)NC(=O)CO5)C(=O)O3)c2O)n1` [Example 88, 6-[2-hydroxy-3-({2-[(S)-2-oxo-3-(3-oxo-3,4-dihydro-2H-benzo[1,4]oxazin-6-yl)-oxazolidin-5-yl]-ethylamino}-methyl)-phenyl]-pyridine-2-carbonitrile], the MIC in test [1] was 0.25 µg/mL (≈ 0.515 µM); in test [2], 4 µg/mL (≈ 8.24 µM); in test [3], 0.125 µg/mL (≈ 0.257 µM); in test [4], ≤ 0.016 µg/mL; in test [5] it was 0.25 µg/mL (≈ 0.515 µM).

In the case of `COc1cnnc(-c2cc(CNCC[C@H]3CN(c4ccc5c(n4)NC(=O)CO5)C(=O)O3)ccc2O)c1` [Example 89, 6-((S)-5-{2-[4-hydroxy-3-(5-methoxy-pyridazin-3-yl)-benzylamino]-ethyl}-2-oxo-oxazolidin-3-yl)-4H-pyrido[3,2-b][1,4]oxazin-3-one], the MIC in test [1] was 0.063 µg/mL (≈ 0.128 µM); in test [2], 8 µg/mL (≈ 16.2 µM); in test [3] it was 0.063 µg/mL (≈ 0.128 µM); in test [4] it was ≤ 0.016 µg/mL; in test [5], 0.125 µg/mL (≈ 0.254 µM).

As to `COc1cccc(-c2cccc(CNCC[C@H]3CN(c4ccc5c(c4)NC(=O)CO5)C(=O)O3)c2O)n1` [Example 90, 6-((S)-5-{2-[2-hydroxy-3-(6-methoxy-pyridin-2-yl)-benzylamino]-ethyl}-2-oxo-oxazolidin-3-yl)-4H-benzo[1,4]oxazin-3-one], the MIC in test [1] is 0.031 µg/mL (≈ 0.0632 µM); in test [2], 2 µg/mL (≈ 4.08 µM); in test [3], 0.063 µg/mL (≈ 0.128 µM); in test [4] it was ≤ 0.016 µg/mL; in test [5], 0.5 µg/mL (≈ 1.02 µM).

Regarding `COc1cncc(-c2cccc(CNCC[C@H]3CN(c4ccc5c(n4)NC(=O)CO5)C(=O)O3)c2)n1` [Example 91, 6-((S)-5-{2-[3-(6-methoxy-pyrazin-2-yl)-benzylamino]-ethyl}-2-oxo-oxazolidin-3-yl)-4H-pyrido[3,2-b][1,4]oxazin-3-one], the MIC was 0.031 µg/mL (≈ 0.0651 µM) in test [1]; 2 µg/mL (≈ 4.2 µM) in test [2]; 0.031 µg/mL (≈ 0.0651 µM) in test [3]; ≤ 0.016 µg/mL in test [4]; 0.063 µg/mL (≈ 0.132 µM) in test [5].

For the compound `N#Cc1cccc(-c2cccc(CNCC[C@H]3CN(c4ccc5c(n4)NC(=O)CO5)C(=O)O3)c2O)n1` [Example 92, 6-[2-hydroxy-3-({2-[(S)-2-oxo-3-(3-oxo-3,4-dihydro-2H-pyrido[3,2-b][1,4]oxazin-6-yl)-oxazolidin-5-yl]-ethylamino}-methyl)-phenyl]-pyridine-2-carbonitrile], the MIC in test [1] was ≤ 0.016 µg/mL; in test [2] it was 0.5 µg/mL (≈ 1.03 µM); in test [3] it was 0.031 µg/mL (≈ 0.0637 µM); in test [4], ≤ 0.016 µg/mL; in test [5] it was 0.063 µg/mL (≈ 0.129 µM).

Regarding `COc1cccc(-c2cccc(CNCC[C@H]3CN(c4ccc5c(n4)NC(=O)CO5)C(=O)O3)c2O)n1` [Example 93, 6-((S)-5-{2-[2-hydroxy-3-(6-methoxy-pyridin-2-yl)-benzylamino]-ethyl}-2-oxo-oxazolidin-3-yl)-4H-pyrido[3,2-b][1,4]oxazin-3-one], the MIC in test [1] was ≤ 0.016 µg/mL; in test [2] it was 0.25 µg/mL (≈ 0.509 µM); in test [3], ≤ 0.016 µg/mL; in test [4], ≤ 0.016 µg/mL; in test [5], 0.063 µg/mL (≈ 0.128 µM).

With `N#Cc1cccc(-c2cccc(CNCC[C@H]3CN(c4ccc5c(n4)NC(=O)CS5)C(=O)O3)c2O)n1` [Example 94, 6-[2-hydroxy-3-({2-[(S)-2-oxo-3-(3-oxo-3,4-dihydro-2H-pyrido[3,2-b][1,4]thiazin-6-yl)-oxazolidin-5-yl]-ethylamino}-methyl)-phenyl]-pyridine-2-carbonitrile], the MIC is ≤ 0.016 µg/mL in test [1]; 0.125 µg/mL (≈ 0.249 µM) in test [2]; ≤ 0.016 µg/mL in test [3]; ≤ 0.016 µg/mL in test [4]; 0.031 µg/mL (≈ 0.0617 µM) in test [5].

For the compound `COc1cccc(-c2cccc(CNCC[C@H]3CN(c4ccc5c(n4)NC(=O)CS5)C(=O)O3)c2O)n1` [Example 95, 6-((S)-5-{2-[2-hydroxy-3-(6-methoxy-pyridin-2-yl)-benzylamino]-ethy}-2-oxo-oxazolidin-3-yl)-4H-pyrido[3,2-b][1,4]thiazin-3-one], the “MIC for S. aureus A798” value in test [1] (setting [6]) is given as “≦0.016 mg/L”. For the same compound, in test [2] (setting [6]), the “MIC for E. faecium A949” value was found to be 0.125 µg/mL. For the same compound, the “MIC for S. aureus ATCC29213” value in test [3] (setting [6]) is reported as “≦0.016 mg/L”. In test [4] (setting [6]), the “MIC for M. catarrhalis A894” value is given as “≦0.016 mg/L”. In addition, the “MIC for A. baumannii T6474” value in test [5] (setting [6]) worked out at 0.063 µg/mL.

For `N#Cc1cccc(-c2cccc(CNCCc3cn(-c4ccc5c(n4)NC(=O)CO5)c(=O)o3)c2O)n1` [Example 96, 6-[2-hydroxy-3-({2-[2-oxo-3-(3-oxo-3,4-dihydro-2H-pyrido[3,2-b][1,4]oxazin-6-yl)-2,3-dihydro-oxazol-5-yl]-ethylamino}-methyl)-phenyl]-pyridine-2-carbonitrile], the MIC is 0.031 µg/mL (≈ 0.064 µM) in test [1]; 1 µg/mL (≈ 2.06 µM) in test [2]; 0.031 µg/mL (≈ 0.064 µM) in test [3]; ≤ 0.016 µg/mL in test [4]; 0.125 µg/mL (≈ 0.258 µM) in test [5].

In the case of `COc1cnnc(-c2cccc(CNCC[C@@H]3CN(c4ccc5c(n4)NC(=O)CO5)C(=O)O3)c2)c1` [Example 97, 6-((R)-5-{2-[3-(5-methoxy-pyridazin-3-yl)-benzylamino]-ethyl}-2-oxo-oxazolidin-3-yl)-4H-pyrido[3,2-b][1,4]oxazin-3-one], the MIC in test [1] worked out at 0.25 µg/mL (≈ 0.525 µM); in test [2] it was 8 µg/mL (≈ 16.8 µM); in test [3], 0.25 µg/mL (≈ 0.525 µM); in test [4] it was 0.031 µg/mL (≈ 0.0651 µM); in test [5] it was 0.25 µg/mL (≈ 0.525 µM).

On to `COc1cnnc(-c2cccc(CNCC[C@@H]3CN(c4ccc5c(n4)NC(=O)CS5)C(=O)O3)c2)c1` [Example 98, 6-((R)-5-{2-[3-(5-methoxy-pyridazin-3-yl)-benzylamino]-ethyl}-2-oxo-oxazolidin-3-yl)-4H-pyrido[3,2-b][1,4]thiazin-3-one], for which the MIC in test [1] is 0.125 µg/mL (≈ 0.254 µM); in test [2], 4 µg/mL (≈ 8.12 µM); in test [3], 0.25 µg/mL (≈ 0.508 µM); in test [4], 0.031 µg/mL (≈ 0.0629 µM); in test [5] it was 0.25 µg/mL (≈ 0.508 µM).

With `COc1cnnc(-c2cccc(CNCC[C@H]3CN(c4ccc5c(n4)NC(=O)CS5)C(=O)O3)c2)c1` [Example 99, 6-((S)-5-{2-[3-(5-methoxy-pyridazin-3-yl)-benzylamino]-ethyl}-2-oxo-oxazolidin-3-yl)-4H-pyrido[3,2-b][1,4]thiazin-3-one], the MIC in test [1] was 0.031 µg/mL (≈ 0.0629 µM); in test [2], 2 µg/mL (≈ 4.06 µM); in test [3], 0.031 µg/mL (≈ 0.0629 µM); in test [4], ≤ 0.016 µg/mL; in test [5] it was 0.125 µg/mL (≈ 0.254 µM).
